Consider ten molecules from PubChem BioAssay (NCI).

Among the test systems are NCI-H23 lung; CAKI-1 renal; HCT-116 colon; CCRF-CEM leukemia; SF-268 CNS; LOX IMVI melanoma; MALME-3M melanoma; HOP-62 NSCLC; HCC-2998 colon; NCI-H226 lung; NCI-H460 lung; A498 renal; SF-539 CNS; M19-MEL melanoma; SN12C renal; RXF 393 renal; NCI/ADR-RES ovarian; COLO 205 colon; HOP-92 NSCLC; ACHN renal.
Common to all, as to assay: DTP human tumour cell line panel, 48 h

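The compound was tested at five concentrations on cells cultured in 96-well plates, with a 48-hour exposure period. Definition used: TGI = concentration required for complete inhibition of growth.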 Where only a bound is given, the exact number is not on record here.

One may read the TGI as the concentration at which net growth stops. Low readings indicate more potent growth arrest, high ones less potent growth arrest. Turning to `CC(C(=O)O)c1cnn(-c2ccccc2)c1-n1cccc1` (stereo not drawn), the TGI in the test with NCI-H23 lung, in the test on CAKI-1 renal, in the test with HCT-116 colon, in the test with CCRF-CEM leukemia, in the test on SF-268 CNS and in the test on LOX IMVI melanoma was over 100 µM in each case. Further, the TGI in the test with MALME-3M melanoma, in the test on HOP-62 NSCLC, in the test with HCC-2998 colon, with NCI-H226 lung, in the test with NCI-H460 lung and with A498 renal was over 100 µM in each case. Also, the TGI in the test on SF-539 CNS, with M19-MEL melanoma, in the test on SN12C renal, in the test on RXF 393 renal, with NCI/ADR-RES ovarian and with COLO 205 colon was over 100 µM each time. In addition, in the test with HOP-92 NSCLC, the TGI is over 100 µM.

`Oc1ccc2ccccc2c1N=Nc1ccc(F)cc1`: the TGI with NCI-H23 lung, in the test on CAKI-1 renal, in the test with HCT-116 colon, in the test with CCRF-CEM leukemia, with SF-268 CNS and with LOX IMVI melanoma was over 100 µM in each case. The TGI in the test with MALME-3M melanoma, with HOP-62 NSCLC, in the test on HCC-2998 colon, in the test on NCI-H460 lung, in the test on A498 renal and in the test on SF-539 CNS was over 100 µM each time. In addition, the TGI with M19-MEL melanoma, in the test with SN12C renal, in the test with RXF 393 renal, with COLO 205 colon, in the test with HOP-92 NSCLC and in the test with ACHN renal was over 100 µM in each case.

On to `CC(=O)OC[C@H]1[C@@H]2C(CC[C@]13CO3)OC(=O)CC(C)[C@]2(C)CCc1ccoc1` (stereo partly drawn), for which the TGI in the test on NCI-H23 lung, in the test on CAKI-1 renal, in the test with HCT-116 colon, in the test with CCRF-CEM leukemia, with SF-268 CNS and with LOX IMVI melanoma was over 100 µM throughout. The TGI in the test with MALME-3M melanoma, in the test with HOP-62 NSCLC, in the test on HCC-2998 colon, with NCI-H226 lung, in the test on NCI-H460 lung and with A498 renal was over 100 µM throughout. The TGI in the test on SF-539 CNS, with SN12C renal, in the test with RXF 393 renal, in the test on NCI/ADR-RES ovarian, with COLO 205 colon and in the test on HOP-92 NSCLC was over 100 µM throughout. In the test with ACHN renal, this molecule gave a concentration for total growth inhibition (TGI) of over 100 µM.

Take `O=C(NCCCNC(=O)c1ccc2cc(O)c(O)cc2c1)c1ccc2cc(O)c(O)cc2c1`: the total growth inhibition concentration (TGI) is 63.5 µM with NCI-H23 lung; over 100 µM in the test with CAKI-1 renal; over 100 µM with HCT-116 colon; 66.3 µM with CCRF-CEM leukemia; over 100 µM in the test with SF-268 CNS; 67.4 µM with LOX IMVI melanoma. Moreover, the TGI is over 100 µM in the test on MALME-3M melanoma; over 100 µM in the test on HOP-62 NSCLC; 50.9 µM with HCC-2998 colon; 57.8 µM with NCI-H226 lung; over 100 µM in the test with NCI-H460 lung; over 100 µM with A498 renal. Moreover, the TGI in the test with SF-539 CNS is 35.6 µM; in the test with RXF 393 renal it was 99.7 µM; in the test on NCI/ADR-RES ovarian, over 100 µM; with COLO 205 colon, over 100 µM; in the test with HOP-92 NSCLC it was 48 µM; in the test on ACHN renal it was over 100 µM.

Take `CC[C@]12C=CCN3CC[C@@]4(c5ccc(OC)cc5N(C)[C@H]4[C@@](O)(C(=O)OC)[C@@H]1OC(C)=O)[C@@H]32`: the TGI in the test with NCI-H23 lung, in the test with CAKI-1 renal, in the test with HCT-116 colon, in the test on CCRF-CEM leukemia, in the test with SF-268 CNS and in the test on LOX IMVI melanoma was over 200 µM each time. Further, the TGI in the test on MALME-3M melanoma, in the test on HOP-62 NSCLC, with HCC-2998 colon, in the test with NCI-H226 lung, in the test with NCI-H460 lung and in the test with A498 renal was over 200 µM each time. Moreover, the TGI with SF-539 CNS is over 200 µM; in the test on M19-MEL melanoma, over 63.2 µM; with SN12C renal, over 200 µM; in the test with RXF 393 renal it was over 200 µM; in the test on NCI/ADR-RES ovarian, over 200 µM; with COLO 205 colon, over 200 µM. In the test with HOP-92 NSCLC, this molecule displayed a TGI of 132 µM.

`COc1ccc2c(c1)CCCc1cn[nH]c1-2`: the TGI with NCI-H23 lung, in the test on CAKI-1 renal, in the test on HCT-116 colon, in the test with CCRF-CEM leukemia, in the test with SF-268 CNS and in the test with LOX IMVI melanoma was over 100 µM in each case. Besides, the TGI in the test on MALME-3M melanoma, with HOP-62 NSCLC, in the test with HCC-2998 colon, in the test on NCI-H226 lung, in the test on NCI-H460 lung and in the test on A498 renal was over 100 µM in each case. Further, the TGI in the test on SF-539 CNS, in the test on M19-MEL melanoma, in the test with SN12C renal, in the test on RXF 393 renal, with NCI/ADR-RES ovarian and in the test with COLO 205 colon was over 100 µM each time. For the same molecule, the TGI in the test with HOP-92 NSCLC is over 100 µM.

For `CCOCNC(=O)N(COCC)COCC`, the concentration for total growth inhibition (TGI) with CAKI-1 renal, in the test with HCT-116 colon, with CCRF-CEM leukemia, in the test on SF-268 CNS, in the test on LOX IMVI melanoma and in the test on MALME-3M melanoma was over 100 µM throughout. Further, the TGI in the test on HOP-62 NSCLC, in the test on HCC-2998 colon, with NCI-H226 lung, with A498 renal, with SF-539 CNS and in the test with M19-MEL melanoma was over 100 µM each time. Besides, the TGI in the test with SN12C renal, with COLO 205 colon and in the test with ACHN renal was over 100 µM in each case.

As to `CN(CCCNc1ccc2ncn3c4ccccc4c(=O)c1c23)CCCN1C(=O)c2cccc3cc([N+](=O)[O-])cc(c23)C1=O`, the TGI in the test on NCI-H23 lung was found to be 1.5 µM; with CAKI-1 renal, 2 µM; with HCT-116 colon, 0.02 µM; in the test on CCRF-CEM leukemia, 0.973 µM; with SF-268 CNS, 2.28 µM; in the test on HOP-62 NSCLC it was 2.15 µM. The TGI was found to be 0.0916 µM in the test on HCC-2998 colon; 1.55 µM in the test on NCI-H226 lung; 0.0224 µM in the test on NCI-H460 lung; 4.53 µM with A498 renal; 0.149 µM in the test with SF-539 CNS; 1.78 µM in the test on SN12C renal. For the same molecule, the TGI in the test with RXF 393 renal amounted to 2.14 µM; in the test on NCI/ADR-RES ovarian it was 1.69 µM; with COLO 205 colon it was 1.06 µM; in the test with HOP-92 NSCLC, 6.39 µM; with ACHN renal, 1.21 µM.

Regarding `COc1ccc(-c2c(C#N)c(NC(=S)NC(=O)c3ccccc3)nc3c2CCCC3)cc1OC`, the TGI in the test on NCI-H23 lung, in the test with CAKI-1 renal, in the test with HCT-116 colon, in the test on CCRF-CEM leukemia, in the test on SF-268 CNS and in the test with LOX IMVI melanoma was over 100 µM throughout. Besides, the TGI in the test with MALME-3M melanoma was over 100 µM; in the test on HOP-62 NSCLC, over 100 µM; with NCI-H460 lung, over 100 µM; in the test on SF-539 CNS, over 100 µM; in the test with SN12C renal, over 100 µM; in the test with RXF 393 renal it was 68.1 µM. Also, the TGI in the test with NCI/ADR-RES ovarian, with COLO 205 colon and in the test with ACHN renal was over 100 µM in each case.

`CC(C)CCN=c1cc2n(-c3ccc(Cl)cc3)c3ccccc3nc-2cc1Nc1ccc(Cl)cc1`: the TGI in the test on NCI-H23 lung was 12.1 µM; with CAKI-1 renal it was over 67.6 µM; with HCT-116 colon, 11.4 µM; with CCRF-CEM leukemia, over 91 µM; in the test with SF-268 CNS, over 100 µM; in the test on LOX IMVI melanoma it was 8.03 µM. For the same molecule, the TGI in the test on MALME-3M melanoma came to 31 µM; in the test with HOP-62 NSCLC it was 26.1 µM; in the test with HCC-2998 colon, 18.1 µM; in the test with NCI-H226 lung it was 20.7 µM; with NCI-H460 lung, 15.6 µM; in the test with A498 renal, 48.5 µM. Also, the TGI with SF-539 CNS was 32.1 µM; with M19-MEL melanoma, 20.2 µM; in the test with SN12C renal, 58.1 µM; in the test on RXF 393 renal, 10.9 µM; in the test on NCI/ADR-RES ovarian it was 28.6 µM; in the test with COLO 205 colon it was 12.9 µM. The molecule also had a TGI in the test with HOP-92 NSCLC of 16.8 µM.
